“And” between values parts separate entries of the source, which are not always exact repeats. Equal entries are not always repeated. Toxic doses and inconclusive results are not listed. Starred links: 1 amine or outer side, 2 acyl side, 3 side chain; linkers in the order of their positions; H or OH if unused. Positions of bridges follow the written chain, without caps; N, C: chain ends. Non-standard residues stand in square brackets, D forms with d. Residues, ends and D or L forms follow the SMILES beside them. Chains are numbered I, II in the order given. Actinocin(9to1) = Cc1c2oc3c(C)ccc(C(=O)[*:1])c3nc-2c(C(=O)[*:2])c(N)c1=O; NMeV = CN[CH](C(=O)O)C(C)C; Aze = O=C(O)[CH]1CCN1; Sar = CNCC(=O)O
Tested on: BDF1 mice, P388 leukemia ip, median survival T/C
Assay: NCI In Vivo Anticancer Drug Screen. Data for tumor model P388 Leukemia (intraperitoneal) in B6D2F1 (BDF1) mice
Details: endpoint: median survival time, higher = longer survival
Procedure, shortened: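 Vehicle-dosed animals serve as the reference; survival of compound-dosed, tumour-implanted mice is divided by it.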

[1] = dose: 12.5 mg/kg/injection, schedule: Q04DX003 (ip), vehicle: saline
[2] = dose: 100.0 mg/kg/injection, schedule: Q04DX003 (ip), vehicle: saline with Tween-80
[3] = dose: 100.0 mg/kg/injection, schedule: Q01DX009 (ip), vehicle: Klucel (hydroxypropylcellulose) (HPC)
[4] = dose: 400.0 mg/kg/injection, schedule: Q01DX009 (ip), vehicle: Klucel (hydroxypropylcellulose) (HPC)
[5] = dose: 50.0 mg/kg/injection, schedule: Q01DX009 (ip), vehicle: saline with Tween-80

Cc1c2oc3c(C)ccc(C(=O)NC4C(=O)NC(C(C)C)C(=O)N5CCC5C(=O)N(C)CC(=O)N(C)C(C(C)C)C(=O)OC4C)c3nc-2c(C(=O)NC2C(=O)NC(C(C)C)C(=O)N3CCC3C(=O)N(C)CC(=O)N(C)C(C(C)C)C(=O)OC2C)c(N)c1=O (stereo not drawn) (I: TV[Aze][Sar][NMeV] / II: TV[Aze][Sar][NMeV]; ester I:1-I:C, II:1-II:C; linker I:N-II:N via Actinocin(9to1); configuration not given here)
T/C (dose: 0.26 mg/kg/injection, schedule: Q04DX003 (ip), vehicle: saline): 226 % of control | T/C (dose: 0.4 mg/kg/injection, schedule: Q04DX003 (ip), vehicle: saline): 180 % of control | T/C (dose: 0.6 mg/kg/injection, schedule: Q04DX003 (ip), vehicle: saline): 319 % of control | T/C (dose: 12.5 micrograms/kg/injection, schedule: Q01DX009 (ip), vehicle: saline + alcohol): 190 % of control | T/C (dose: 25.0 micrograms/kg/injection, schedule: Q01DX009 (ip), vehicle: saline + alcohol): 197 % of control | T/C (dose: 50.0 micrograms/kg/injection, schedule: Q01DX009 (ip), vehicle: saline + alcohol): 239 % of control | T/C (dose: 75.0 micrograms/kg/injection, schedule: Q01DX009 (ip), vehicle: saline + alcohol): 237 % of control | T/C (dose: 100.0 micrograms/kg/injection, schedule: Q01DX009 (ip), vehicle: saline + alcohol): 260 % of control | T/C (dose: 112.5 micrograms/kg/injection, schedule: Q01DX009 (ip), vehicle: saline + alcohol): 274 % of control | T/C (dose: 150.0 micrograms/kg/injection, schedule: Q01DX009 (ip), vehicle: saline + alcohol): 274 % of control | T/C (dose: 150.0 micrograms/kg/injection, schedule: Q04DX003 (ip), vehicle: saline + alcohol): 218 % of control | T/C (dose: 200.0 micrograms/kg/injection, schedule: Q01DX009 (ip), vehicle: saline + alcohol): 166 % of control | T/C (dose: 216.0 micrograms/kg/injection, schedule: Q04DX003 (ip), vehicle: saline + alcohol): 207 % of control | T/C (dose: 225.0 micrograms/kg/injection, schedule: Q01DX009 (ip), vehicle: saline + alcohol): 108 % of control | T/C (dose: 225.0 micrograms/kg/injection, schedule: Q04DX003 (ip), vehicle: saline + alcohol): 212 % of control | T/C (dose: 300.0 micrograms/kg/injection, schedule: Q01DX009 (ip), vehicle: saline + alcohol): 113 % of control | T/C (dose: 360.0 micrograms/kg/injection, schedule: Q04DX003 (ip), vehicle: saline + alcohol): 225 % of control | T/C (dose: 450.0 micrograms/kg/injection, schedule: Q04DX003 (ip), vehicle: saline + alcohol): 238 % of control and 336 % of control | T/C (dose: 900.0 micrograms/kg/injection, schedule: Q04DX003 (ip), vehicle: saline + alcohol): 88 % of control and 117 % of control | T/C (dose: 1000.0 micrograms/kg/injection, schedule: Q04DX003 (ip), vehicle: saline + alcohol): 97 % of control | T/C (dose: 1200.0 micrograms/kg/injection, schedule: Q04DX003 (ip), vehicle: saline + alcohol): 102 % of control

Nc1ncnc2nc[nH]c12.[Cl][Pt][Cl]
T/C (dose: 100.0 mg/kg/injection, schedule: Q01DX009 (ip), vehicle: water): 114 % of control | T/C (dose: 100.0 mg/kg/injection, schedule: Q04DX003 (ip), vehicle: water): 93 % of control | T/C (dose: 200.0 mg/kg/injection, schedule: Q01DX009 (ip), vehicle: water): 118 % of control | T/C (dose: 200.0 mg/kg/injection, schedule: Q04DX003 (ip), vehicle: water): 98 % of control | T/C (dose: 400.0 mg/kg/injection, schedule: Q01DX009 (ip), vehicle: water): 104 % of control | T/C (dose: 400.0 mg/kg/injection, schedule: Q04DX003 (ip), vehicle: water): 98 % of control

CC12CCC(O)CC1CCC1C2CCC2(C)C(c3ccc(=O)oc3)C(O)C3OC132 (stereo not drawn)
T/C (dose: 3.5 mg/kg/injection, schedule: Q01DX009 (ip), vehicle: Klucel (hydroxypropylcellulose) (HPC)): 100 % of control | T/C (dose: 7.0 mg/kg/injection, schedule: Q01DX009 (ip), vehicle: Klucel (hydroxypropylcellulose) (HPC)): 102 % of control

O=[N+]([O-])c1ccc(C[Se]c2ncnc3c2ncn3C2OC(CO)C(O)C2O)cc1 (stereo not drawn)
T/C [1]: 109 % of control | T/C (dose: 25.0 mg/kg/injection, schedule: Q04DX003 (ip), vehicle: saline): 103 % of control | T/C (dose: 50.0 mg/kg/injection, schedule: Q04DX003 (ip), vehicle: saline): 96 % of control | T/C (dose: 100.0 mg/kg/injection, schedule: Q04DX003 (ip), vehicle: saline): 105 % of control

CCOC(=O)C(Cc1ccc(N(CCCl)CCCl)cc1)NC=O (stereo not drawn)
T/C (dose: 66.0 mg/kg/injection, schedule: Q04DX003 (ip), vehicle: saline with Tween-80): 181 % of control | T/C [2]: 200 % of control and 209 % of control | T/C (dose: 150.0 mg/kg/injection, schedule: Q04DX003 (ip), vehicle: saline with Tween-80): 268 % of control and 272 % of control | T/C (dose: 375.0 micrograms/kg/injection, schedule: Q04DX003 (ip), vehicle: saline with Tween-80): 110 % of control | T/C (dose: 750.0 micrograms/kg/injection, schedule: Q04DX003 (ip), vehicle: saline with Tween-80): 120 % of control

O=C(Nc1ccc(C(=O)Nc2ccc(C3=NCCCN3)cc2)cc1)Nc1ccc(C2=NCCCN2)cc1
T/C (dose: 16.5 mg/kg/injection, schedule: Q04DX003 (ip), vehicle: saline with Tween-80): 122 % of control and 204 % of control | T/C (dose: 25.0 mg/kg/injection, schedule: Q04DX003 (ip), vehicle: saline with Tween-80): 245 % of control and 163 % of control | T/C (dose: 37.5 mg/kg/injection, schedule: Q04DX003 (ip), vehicle: saline with Tween-80): 159 % of control and 186 % of control

CC(C)C(Br)C(=O)NC(Cc1ccccc1)C(=O)O (stereo not drawn)
T/C [2]: 109 % of control | T/C (dose: 200.0 mg/kg/injection, schedule: Q04DX003 (ip), vehicle: saline with Tween-80): 100 % of control | T/C (dose: 400.0 mg/kg/injection, schedule: Q04DX003 (ip), vehicle: saline with Tween-80): 95 % of control

C[C@]12CC[C@@H]3c4ccc(O)cc4CC[C@H]3[C@@H]1CC[C@@H]2O
T/C [3]: 90 % of control | T/C (dose: 100.0 mg/kg/injection, schedule: Q04DX003 (ip), vehicle: Klucel (hydroxypropylcellulose) (HPC)): 100 % of control | T/C (dose: 200.0 mg/kg/injection, schedule: Q04DX003 (ip), vehicle: Klucel (hydroxypropylcellulose) (HPC)): 100 % of control | T/C [4]: 95 % of control | T/C (dose: 400.0 mg/kg/injection, schedule: Q04DX003 (ip), vehicle: Klucel (hydroxypropylcellulose) (HPC)): 115 % of control

NC1C(O)C(O)C(Nc2ncnc3nc[nH]c23)OC1C(O)CO (stereo not drawn)
T/C (dose: 1.5 mg/kg/injection, schedule: Q01DX010 (ip), vehicle: saline): 105 % of control | T/C (dose: 3.0 mg/kg/injection, schedule: Q01DX010 (ip), vehicle: saline): 105 % of control | T/C (dose: 6.0 mg/kg/injection, schedule: Q01DX010 (ip), vehicle: saline): 100 % of control | T/C (dose: 12.0 mg/kg/injection, schedule: Q01DX010 (ip), vehicle: saline): 95 % of control | T/C (dose: 24.0 mg/kg/injection, schedule: Q01DX010 (ip), vehicle: saline): 110 % of control | T/C (dose: 48.0 mg/kg/injection, schedule: Q01DX010 (ip), vehicle: saline): 105 % of control

O=[N+]([O-])c1cc(C(F)(F)F)cc([N+](=O)[O-])c1N1CCCC(n2cccc2)C1 (stereo not drawn)
T/C [5]: 107 % of control | T/C (dose: 100.0 mg/kg/injection, schedule: Q01DX009 (ip), vehicle: saline with Tween-80): 109 % of control | T/C (dose: 200.0 mg/kg/injection, schedule: Q01DX009 (ip), vehicle: saline with Tween-80): 118 % of control

CN(C)C1C(=O)C(C(N)=O)=C(O)C2(O)C(=O)C3=C(O)c4c(O)cccc4C(C)(O)C3CC12.O.O.O.[Al] (stereo not drawn)
T/C [3]: 101 % of control | T/C (dose: 200.0 mg/kg/injection, schedule: Q01DX009 (ip), vehicle: Klucel (hydroxypropylcellulose) (HPC)): 92 % of control | T/C [4]: 121 % of control

CCOC(=O)c1cnc(=O)[nH]c1N
T/C [5]: 99 % of control

CCC[N+](C)(C)CCCCOCCCC[N+](C)(C)CCC
T/C (dose: 3.0 mg/kg/injection, schedule: Q01DX009 (ip), vehicle: saline): 88 % of control | T/C (dose: 3.0 mg/kg/injection, schedule: Q04DX003 (ip), vehicle: saline): 100 % of control | T/C (dose: 6.0 mg/kg/injection, schedule: Q01DX009 (ip), vehicle: saline): 92 % of control | T/C (dose: 6.0 mg/kg/injection, schedule: Q04DX003 (ip), vehicle: saline): 116 % of control | T/C (dose: 6.25 mg/kg/injection, schedule: Q04DX003 (ip), vehicle: saline): 113 % of control | T/C (dose: 12.0 mg/kg/injection, schedule: Q01DX009 (ip), vehicle: saline): 96 % of control | T/C (dose: 12.0 mg/kg/injection, schedule: Q04DX003 (ip), vehicle: saline): 100 % of control | T/C [1]: 109 % of control

O=S(=O)(O)c1c(Cl)c(Cl)c(Cl)c(Cl)c1Cl
T/C (dose: 50.0 mg/kg/injection, schedule: Q04DX003 (ip), vehicle: suspension in saline): 115 % of control | T/C (dose: 100.0 mg/kg/injection, schedule: Q04DX003 (ip), vehicle: suspension in saline): 116 % of control | T/C (dose: 200.0 mg/kg/injection, schedule: Q04DX003 (ip), vehicle: suspension in saline): 114 % of control

Reference: PubChem BioAssay AID328 (DTP/NCI, 2004)
